{"source": "patent US20070191462A1", "about": "“Combination of A 5-HT(1) Receptor Agonist and an Alpha-2-Delta Ligand for the Treatment of Migraine” (Pfizer Limited, priority 2004, published 2007)", "system": "2nd sensory neuron in the trigeminal nucleus caudalis (TNC)", "assay": "rat model of migraine: sensitization induced by inflammatory soup applied to the dura, monitored by electrophysiology in the TNC", "format": "in vivo", "conditions": "eletriptan given 3 hours after inflammatory soup on the dura; observed as late as 5.5 hours after sensitization"}
{"smiles": "CN1CCC[C@@H]1Cc1c[nH]c2ccc(CCS(=O)(=O)c3ccccc3)cc12", "note": "[eletriptan]", "values": [{"measurement": "reversal of sensitization of responses to sensory stimuli (brush and pin)", "value": "did not reverse the sensitization"}]}
